The text below walks through data of US9725554B2, “Dendritic polyurea for solubilizing active substances of low solubility” (BASF SE, priority 2009, dated 2017).

Bounds are passed on as bounds.

One data set is described as follows: physchem. Conditions: pH 7, aqueous buffer, thermodynamic from solid. How it is done: Then 0.2 g of each active ingredient was weighed into the batch to give a supersaturated solution. […] The mixture was then stirred at room temperature for 72 hours, using a magnetic stirrer. After a rest time of one hour, unsolubilized active ingredient was removed by filtration. The resulting clear or opaque solution was then analyzed for its active ingredient content by means of UV spectroscopy or HPLC.

How the values of data set [1] were obtained:
Then 100 mg of each active ingredient was weighed into the batch to give a supersaturated solution. The mixture was then stirred at room temperature for 24 hours, using a magnetic stirrer. After a rest time of one hour, unsolubilized active ingredient was removed by centrifuging. The resulting clear or opaque solution was then analyzed for its active ingredient content by means of UV spectroscopy.
The solubility was determined as described in procedure 2.

A word on the solubility: it is how much of the substance goes into solution per volume. Turning to `Clc1ccccc1C(c1ccccc1)(c1ccccc1)n1ccnc1` [Clotrimazole], the solubility at 72 h in “physchem” is below 0.1 mg/mL.
Regarding “polyethylene glycol monomethyl ether [PEG monomethyl ether]”, in data set [1], the “Solubility of Fipronil in the presence of polymer” value came to 0.006 mg/mL.
